Assays:
[1] = tested on: human umbilical vein endothelial cells (HUVECs); details: cited from earlier work
[2] = cited from earlier work
[3] = tested on: SEQ ID NO:45 expression in C3A cells; test: Microarray expression analysis of steroid-treated versus untreated C3A cells; format: cell-based, human
Method: Total RNA is isolated from tissue samples using the guanidinium thiocyanate method and poly(A)^+ RNA is purified using the oligo-(dT) cellulose method. Each poly(A)^+ RNA sample is reverse transcribed using MMLV reverse-transcriptase, 0.05 pg/μl oligo-(dT) primer (21 mer), 1×first strand buffer, 0.03 units/μL RNase inhibitor, 500 μM dATP, 500 μM dGTP, 500 μM dTTP, 40 μM dCTP, 40 μM dCTP-Cy3 (BDS) or dCTP-Cy5 (Amersham Biosciences). The reverse transcription reaction is performed in a […] containing 200 ng poly(A)^+ RNA with GEMBRIGHT kits (Incyte). Specific control poly(A)+ RNAs are synthesized by in vitro transcription from non-coding yeast genomic DNA. After incubation at 37° C. for 2 hr, each reaction sample (one with Cy3 and another with Cy5 labeling) is treated with […] of 0.5M sodium hydroxide and incubated for 20 minutes at 85° C. to the stop the reaction and degrade the RNA. Samples are purified using two successive CHROMA SPIN 30 gel filtration spin columns (CLONTECH Laboratories, Inc. (CLONTECH), Palo Alto Calif.) and after combining, both reaction samples are ethanol precipitated using 1 ml of glycogen (1 mg/ml), 60 ml sodium acetate, and 300 ml of 100% ethanol. The sample is then dried to completion using a SpeedVAC (Savant Instruments Inc., Holbrook N.Y.) and resuspended in 14 μl 5×SSC/0.2% SDS.
Sequences of the present invention are used to generate array elements. Each array element is amplified from bacterial cells containing vectors with cloned cDNA inserts. PCR amplification uses primers complementary to the vector sequences flanking the cDNA insert. Array elements are amplified in thirty cycles of PCR from an initial quantity of 1-2 ng to a final quantity greater than 5 μg. Amplified array elements are then purified using […]-400 (Amersham Biosciences).
Hybridization reactions contain 9 μl of sample mixture consisting of 0.2 μg each of Cy3 and Cy5 labeled cDNA synthesis products in 5×SSC, 0.2% SDS hybridization buffer. The sample mixture is heated to 65° C. for 5 minutes and is aliquoted onto the microarray surface and covered with an 1.8 cm^2 coverslip. The arrays are transferred to a waterproof chamber having a cavity just slightly larger than a microscope slide. The chamber is kept at 100% humidity internally by the addition of 140 μl of 5×SSC in a comer of the chamber. The chamber containing the arrays is incubated for about 6.5 hours at 60° C. The arrays are washed for 10 min at 45° C. in a first wash buffer (1×SSC, 0.1% SDS), three times for 10 minutes each at 45° C. in a second wash buffer (0.1×SSC), and dried.
Reporter-labeled hybridization complexes are detected with a microscope equipped with an Innova 70 mixed gas 10 W laser (Coherent, Inc., Santa Clara Calif.) capable of generating spectral lines at 488 nm for excitation of Cy3 and at 632 nm for excitation of CyS. The excitation laser light is focused on the array using a 20× microscope objective (Nikon, Inc., Melville N.Y.). The slide containing the array is placed on a computer-controlled X-Y stage on the microscope and raster-scanned past the objective. The 1.8 cm×1.8 cm array used in the present example is scanned with a resolution of 20 micrometers.
A grid is superimposed over the fluorescence signal image such that the signal from each spot is centered in each element of the grid. The fluorescence signal within each element is then integrated to obtain a numerical value corresponding to the average intensity of the signal. […]

[4] = tested on: SEQ ID NO:33 expression in BT-20 cells; test: Microarray expression analysis of BT-20 cells treated with EGF; format: cell-based, human; details: BT-20 breast carcinoma cells
Method: Total RNA is isolated from tissue samples using the guanidinium thiocyanate method and poly(A)^+ RNA is purified using the oligo-(dT) cellulose method. Each poly(A)^+ RNA sample is reverse transcribed using MMLV reverse-transcriptase, 0.05 pg/μl oligo-(dT) primer (21 mer), 1×first strand buffer, 0.03 units/μL RNase inhibitor, 500 μM dATP, 500 μM dGTP, 500 μM dTTP, 40 μM dCTP, 40 μM dCTP-Cy3 (BDS) or dCTP-Cy5 (Amersham Biosciences). The reverse transcription reaction is performed in a […] containing 200 ng poly(A)^+ RNA with GEMBRIGHT kits (Incyte). Specific control poly(A)+ RNAs are synthesized by in vitro transcription from non-coding yeast genomic DNA. […]
Sequences of the present invention are used to generate array elements. […] Array elements are amplified in thirty cycles of PCR from an initial quantity of 1-2 ng to a final quantity greater than 5 μg. […]
Reporter-labeled hybridization complexes are detected with a microscope equipped with an Innova 70 mixed gas 10 W laser (Coherent, Inc., Santa Clara Calif.) capable of generating spectral lines at 488 nm for excitation of Cy3 and at 632 nm for excitation of CyS. […]
A grid is superimposed over the fluorescence signal image such that the signal from each spot is centered in each element of the grid. […]

[5] = dose 10 μM, 1 hour of treatment
[6] = dose 10 μM, 3 hours of treatment

## TNF-α
[1]
  increase of cellular secretions of MCP-1 compared with untreated cells: 119 fold

## C[C@H]1C[C@H]2[C@@H]3CCC4=CC(=O)C=C[C@]4(C)[C@@]3(Cl)[C@@H](O)C[C@]2(C)[C@@]1(O)C(=O)CO [beclomethasone]
[2]; intranasal, greater than those produced by hydrocortisone
  anti-inflammatory and vasoconstrictive effects relative to hydrocortisone: 5000 times
[3]; dose 1 μM, 3 hours of treatment
  expression of SEQ ID NO:45 increased in drug-treated, as compared to untreated, C3A cells: at least two-fold
[3]; [5]
  expression of SEQ ID NO:45 increased in drug-treated, as compared to untreated, C3A cells: at least two-fold
[3]; [6]
  expression of SEQ ID NO:45 increased in drug-treated, as compared to untreated, C3A cells: at least two-fold

## epidermal growth factor: a potent mitogen (NSDSECPLSHDGYCLHDGVCMYIEALDKYACNCVVGYIGERCQYRDLKWWELR; Epidermal growth factor; UniProt P01133 971-1023, looked up)
[4]
  expression of SEQ ID NO:33 down-regulated on treatment of BT-20 cells: at least two-fold

## 6α-methyl-17-hydroxyprogesterone [medroxyprogesterone]
[2]; greater than progesterone
  pharmacological activity relative to progesterone: about 15 times
[3]; [5]
  expression of SEQ ID NO:45 increased in drug-treated, as compared to untreated, C3A cells: at least two-fold
[3]; [6]
  expression of SEQ ID NO:45 increased in drug-treated, as compared to untreated, C3A cells: at least two-fold

Source: patent US20060127894A1, “Protein associated with cell growth, differentiation, and death” (Incyte Corporation, priority 2001, published 2006)
